According to ChEMBL document CHEMBL3102853, “Carbonic anhydrase inhibitors. Synthesis, and molecular structure of novel series N-substituted N'-(2-arylmethylthio-4-chloro-5-methylbenzenesulfonyl)guanidines and their inhibition of human cytosolic isozymes I and II and the transmembrane tumor-associated isozymes IX and XII” (Eur J Med Chem, 2014):
Active and inactive are the calls of the source. The calls are words filed in the database; no cut-off is given here.

Assays:
Format in all cases: functional
[1] = tested on: Hs-578T; assay: (§1) Cytotoxicity against human Hs 578T cells at 10 uM
[2] = tested on: MDA-MB-468; assay: Cytotoxicity against human MDA-MB-468 cells at 10 uM; conditions: read-out: GI
[3] = tested on: MCF7; assay: Cytotoxicity against human MCF7 cells at 10 uM; conditions: read-out: GI
[4] = tested on: T47D; assay: Cytotoxicity against human T47D cells at 10 uM; conditions: read-out: GI
[5] = tested on: DU-145; assay: Cytotoxicity against human DU145 cells at 10 uM
[6] = tested on: PC-3; assay: Cytotoxicity against human PC3 cells at 10 uM; conditions: read-out: GI
[7] = tested on: A498; assay: Cytotoxicity against human A498 cells at 10 uM
[8] = tested on: NCI/ADR-RES; assay: (§2) Cytotoxicity against human NCI-ADR-RES cells at 10 uM
[9] = tested on: LOX IMVI; assay: Cytotoxicity against human LOXIMVI cells at 10 uM; conditions: read-out: GI
[10] = tested on: OVCAR-3; assay: Cytotoxicity against human OVCAR3 cells at 10 uM
[11] = tested on: UACC-62; assay: Cytotoxicity against human UACC62 cells at 10 uM
[12] = tested on: SK-MEL-2; assay: Cytotoxicity against human SK-MEL-2 cells at 10 uM
[13] = tested on: SF-268; assay: Cytotoxicity against human SF268 cells at 10 uM
[14] = tested on: SW-620; assay: Cytotoxicity against human SW620 cells at 10 uM
[15] = tested on: SNB-75; assay: Cytotoxicity against human SNB75 cells at 10 uM; conditions: read-out: GI
[16] = tested on: KM12; assay: Cytotoxicity against human KM12 cells at 10 uM
[17] = tested on: HT-29; assay: Cytotoxicity against human HT-29 cells at 10 uM
[18] = tested on: HOP-92; assay: Cytotoxicity against human HOP92 cells at 10 uM; conditions: read-out: GI
[19] = tested on: NCI-H460; assay: Cytotoxicity against human NCI-H460 cells at 10 uM
[20] = tested on: A549; assay: Cytotoxicity against human A549 cells at 10 uM
[21] = tested on: SR; assay: Cytotoxicity against human SR cells at 10 uM
[22] = tested on: MOLT-4; assay: Cytotoxicity against human MOLT4 cells at 10 uM; conditions: read-out: GI
[23] = tested on: RPMI-8226; assay: Cytotoxicity against human RPMI8226 cells at 10 uM
[24] = tested on: K562; assay: Cytotoxicity against human K562 cells at 10 uM; conditions: read-out: GI
[25] = tested on: HL-60(TB); assay: Cytotoxicity against human HL-60(TB) cells at 10 uM; conditions: read-out: GI
[26] = tested on: MDA-MB-468; assay: Cytotoxicity against human MDA-MB-468 cells
[27] = tested on: IGROV-1; assay: Cytotoxicity against human IGROV1 cells
[28] = tested on: T47D; assay: Cytotoxicity against human T47D cells
[29] = tested on: BT-549; assay: Cytotoxicity against human BT549 cells
[30] = Cytotoxicity against human Hs 578T cells
[31] = tested on: MCF7; assay: Cytotoxicity against human MCF7 cells
[32] = tested on: MDA-MB-231; assay: Cytotoxicity against human MDA-MB-231 cells
[33] = tested on: PC-3; assay: Cytotoxicity against human PC3 cells
[34] = tested on: A498; assay: Cytotoxicity against human A498 cells
[35] = tested on: OVCAR-8; assay: Cytotoxicity against human OVCAR8 cells
[36] = tested on: OVCAR-3; assay: Cytotoxicity against human OVCAR3 cells
[37] = Cytotoxicity against human OVCAR4 cells
[38] = tested on: UACC-62; assay: Cytotoxicity against human UACC62 cells
[39] = Cytotoxicity against human UACC257 cells
[40] = tested on: SK-MEL-2; assay: Cytotoxicity against human SK-MEL-2 cells
[41] = tested on: SK-MEL-28; assay: Cytotoxicity against human SK-MEL-28 cells
[42] = tested on: MDA-MB-435; assay: Cytotoxicity against human MDA-MB-435 cells
[43] = tested on: M14; assay: Cytotoxicity against human M14 cells
[44] = tested on: Malme-3M; assay: Cytotoxicity against human MALME-3M cells
[45] = tested on: LOX IMVI; assay: Cytotoxicity against human LOXIMVI cells
[46] = tested on: SNB-19; assay: Cytotoxicity against human SNB19 cells
[47] = tested on: SNB-75; assay: Cytotoxicity against human SNB75 cells
[48] = tested on: SF-268; assay: Cytotoxicity against human SF268 cells
[49] = tested on: KM12; assay: Cytotoxicity against human KM12 cells
[50] = tested on: SF-539; assay: Cytotoxicity against human SF539 cells
[51] = tested on: HCT-116; assay: Cytotoxicity against human HCT116 cells
[52] = tested on: HCC 2998; assay: Cytotoxicity against human HCC2998 cells
[53] = tested on: NCI-H522; assay: Cytotoxicity against human NCI-H522 cells
[54] = tested on: COLO 205; assay: Cytotoxicity against human COLO205 cells
[55] = tested on: NCI-H460; assay: Cytotoxicity against human NCI-H460 cells
[56] = tested on: HOP-92; assay: Cytotoxicity against human HOP92 cells
[57] = tested on: RPMI-8226; assay: Cytotoxicity against human RPMI8226 cells
[58] = tested on: SR; assay: Cytotoxicity against human SR cells
[59] = tested on: MOLT-4; assay: Cytotoxicity against human MOLT4 cells
[60] = tested on: K562; assay: Cytotoxicity against human K562 cells
[61] = tested on: CCRF-CEM; assay: Cytotoxicity against human CCRF-CEM cells
[62] = tested on: HL-60(TB); assay: Cytotoxicity against human HL-60(TB) cells
[63] = as §1; conditions: read-out: GI
[64] = as §2; conditions: read-out: GI
[65] = read-out: LC50 (the source's name)

Cc1cc(S(=O)(=O)NC(=N)Nc2nnc(S(N)(=O)=O)s2)c(SCc2ccccc2)cc1Cl
growth inhibition (GI) [1]: inactive
inhibition of growth at 10 µM [2]: 11%
inhibition of growth at 10 µM [3]: 11%
inhibition of growth at 10 µM [4]: 6%
growth inhibition (GI) [5]: inactive
inhibition of growth at 10 µM [6]: 3%
growth inhibition (GI) [7]: inactive
growth inhibition (GI) [8]: inactive
inhibition of growth at 10 µM [9]: 4%
growth inhibition (GI) [10]: inactive
growth inhibition (GI) [11]: inactive
growth inhibition (GI) [12]: inactive
growth inhibition (GI) [13]: inactive
growth inhibition (GI) [14]: inactive
inhibition of growth at 10 µM [15]: 18%
growth inhibition (GI) [16]: inactive
growth inhibition (GI) [17]: inactive
inhibition of growth at 10 µM [18]: 1%
growth inhibition (GI) [19]: inactive
growth inhibition (GI) [20]: inactive
growth inhibition (GI) [21]: inactive
inhibition of growth at 10 µM [22]: 14%
growth inhibition (GI) [23]: inactive
inhibition of growth at 10 µM [24]: 2%
inhibition of growth at 10 µM [25]: 15%

Cc1cc(S(=O)(=O)NC(=N)NCc2ccc(S(N)(=O)=O)cc2)c(SCc2ccc(C(F)(F)F)cc2)cc1Cl
GI50 [26]: 2.9 µM
TGI [26]: 13.8 µM
CC50 [26, 65]: 66.4 µM
GI50 [27]: 4.9 µM
TGI [27]: 17.7 µM
CC50 [27, 65]: 64.8 µM
GI50 [28]: 4.7 µM
TGI [28]: 20.7 µM
CC50 [28, 65]: 84.4 µM
GI50 [29]: 4.4 µM
TGI [29]: 12.9 µM
CC50 [29, 65]: 46.9 µM
GI50 [30]: 4.6 µM
TGI [30]: 24.1 µM
CC50 [30, 65]: > 100 µM
GI50 [31]: 3.3 µM
TGI [31]: 13.6 µM
CC50 [31, 65]: 67.1 µM
GI50 [32]: 3.1 µM
TGI [32]: 8.9 µM
CC50 [32, 65]: 34.5 µM
GI50 [33]: 3.3 µM
TGI [33]: 12.8 µM
CC50 [33, 65]: 43.2 µM
GI50 [34]: 3.1 µM
TGI [34]: 17.3 µM
CC50 [34, 65]: 46.5 µM
GI50 [35]: 5 µM
TGI [35]: 21 µM
CC50 [35, 65]: 70.2 µM
GI50 [36]: 4.3 µM
TGI [36]: 15.4 µM
CC50 [36, 65]: 41 µM
GI50 ([37]; OVCAR-4): 4.2 µM
TGI ([37]; OVCAR-4): 20.3 µM
CC50 ([37]; OVCAR-4, read-out: LC50 (the source's name)): 75.9 µM
GI50 [38]: 2.6 µM
TGI [38]: 9.1 µM
CC50 [38, 65]: 32 µM
GI50 ([39]; UACC-257): 3.7 µM
TGI ([39]; UACC-257): 14.7 µM
CC50 ([39]; UACC-257, read-out: LC50 (the source's name)): 39.4 µM
GI50 [40]: 2.5 µM
TGI [40]: 6.2 µM
CC50 [40, 65]: 22.2 µM
GI50 [41]: 3.6 µM
TGI [41]: 14 µM
CC50 [41, 65]: 44.3 µM
GI50 [42]: 3.8 µM
TGI [42]: 12.5 µM
CC50 [42, 65]: 41.9 µM
GI50 [43]: 4.5 µM
TGI [43]: 16.8 µM
CC50 [43, 65]: 49.6 µM
GI50 [44]: 3.8 µM
TGI [44]: 16.3 µM
CC50 [44, 65]: 49.5 µM
GI50 [45]: 6.1 µM
TGI [45]: 20.5 µM
CC50 [45, 65]: 54.3 µM
GI50 [46]: 5 µM
TGI [46]: 19.3 µM
CC50 [46, 65]: 54.4 µM
GI50 [47]: 3 µM
TGI [47]: 15.9 µM
CC50 [47, 65]: 56.4 µM
GI50 [48]: 4.8 µM
TGI [48]: 18.5 µM
CC50 [48, 65]: 55.8 µM
GI50 [49]: 3.1 µM
TGI [49]: 10.1 µM
CC50 [49, 65]: 41.7 µM
GI50 [50]: 5.2 µM
TGI [50]: 17.9 µM
CC50 [50, 65]: 44.8 µM
GI50 [51]: 4.1 µM
TGI [51]: 15.9 µM
CC50 [51, 65]: 46.6 µM
GI50 [52]: 3.1 µM
TGI [52]: 10.4 µM
CC50 [52, 65]: 41.7 µM
GI50 [53]: 4.6 µM
TGI [53]: 16.8 µM
CC50 [53, 65]: 42.3 µM
GI50 [54]: 3.5 µM
TGI [54]: 11.4 µM
CC50 [54, 65]: 58.1 µM
GI50 [55]: 3.8 µM
TGI [55]: 15.7 µM
CC50 [55, 65]: 63.9 µM
GI50 [56]: 2.9 µM
TGI [56]: 8.3 µM
CC50 [56, 65]: 32.4 µM
GI50 [57]: 2.8 µM
TGI [57]: 9.1 µM
CC50 [57, 65]: 98.6 µM
GI50 [58]: 2.4 µM
TGI [58]: 6.8 µM
CC50 [58, 65]: > 100 µM
GI50 [59]: 3 µM
TGI [59]: 10.5 µM
CC50 [59, 65]: > 100 µM
GI50 [60]: 3.7 µM
TGI [60]: 25.3 µM
CC50 [60, 65]: > 100 µM
GI50 [61]: 3.5 µM
TGI [61]: 13.4 µM
CC50 [61, 65]: 85.3 µM
GI50 [62]: 2.4 µM
TGI [62]: 6.4 µM
CC50 [62, 65]: 54.4 µM
inhibition of growth at 10 µM [63]: 68%
inhibition of growth at 10 µM [2]: 37%
inhibition of growth at 10 µM [3]: 47%
inhibition of growth at 10 µM [4]: 30%
inhibition of growth at 10 µM ([5]; read-out: GI): 57%
inhibition of growth at 10 µM [6]: 83%
inhibition of growth at 10 µM ([7]; read-out: GI): 63%
inhibition of growth at 10 µM [64]: 64%
inhibition of growth at 10 µM [9]: 67%
inhibition of growth at 10 µM ([10]; read-out: GI): 1%
inhibition of growth at 10 µM ([11]; read-out: GI): 59%
inhibition of growth at 10 µM ([12]; read-out: GI): 94%
inhibition of growth at 10 µM ([13]; read-out: GI): 69%
inhibition of growth at 10 µM ([14]; read-out: GI): 68%
inhibition of growth at 10 µM [15]: 68%
inhibition of growth at 10 µM ([16]; read-out: GI): 89%
inhibition of growth at 10 µM ([17]; read-out: GI): 79%
inhibition of growth at 10 µM [18]: 89%
inhibition of growth at 10 µM ([19]; read-out: GI): 53%
inhibition of growth at 10 µM ([20]; read-out: GI): 60%
inhibition of growth at 10 µM ([21]; read-out: GI): 17%
inhibition of growth at 10 µM [22]: 48%
inhibition of growth at 10 µM ([23]; read-out: GI): 58%
inhibition of growth at 10 µM [25]: 83%
